Results taken from ChEMBL document CHEMBL1123770, “Systematic synthesis and biological evaluation of alpha- and beta-D-lyxofuranosyl nucleosides of the five naturally occurring nucleic acid bases” (1987).
Converted amounts (≈) assume the structure as drawn.

Columns and labels:
Vero [1] = test: Minimum inhibitory concentration (MIC) required to reduce virus-induced cytopathogenicity by 50% against Coxsackie virus B4 in African green monkey kidney (Vero B)cells; format: functional, Chlorocebus sabaeus
Vero [2] = test: Minimum inhibitory concentration (MIC) required to reduce virus-induced cytopathogenicity by 50% against Parainfluenza virus-3 in African green monkey kidney (Vero B)cells; format: functional, Chlorocebus sabaeus
Vero [3] = test: Minimum inhibitory concentration (MIC) required to reduce virus-induced cytopathogenicity by 50% against forest virus in African green monkey kidney (Vero B)cells; format: functional; settings: Chlorocebus sabaeus
WI-38 [4] = test: Minimum cytotoxic concentration (MCC) required to cause a microscopically detectable alteration of host cell morphology, when incubated with WI-38 cells; format: functional; settings: Homo sapiens
HeLa [5] = test: Minimum cytotoxic concentration (MCC) required to cause a microscopically detectable alteration of host cell morphology, when incubated with HeLa cells; format: functional; settings: Homo sapiens
WI-38 [6] = test: Minimum inhibitory concentration (MIC) required to reduce virus-induced cytopathogenicity by 50% against Rhinovirus 9 in human diploid (WI-38)cells; format: functional
Vero [7] = test: Minimum inhibitory concentration (MIC) required to reduce virus-induced cytopathogenicity by 50% against Reo virus-1 in African green monkey kidney (Vero B)cells; format: functional, Chlorocebus sabaeus
Vero [8] = test: Minimum cytotoxic concentration (MCC) required to cause a microscopically detectable alteration of host cell morphology, when incubated with Vero B cells; format: functional; settings: Chlorocebus sabaeus
Vero [9] = test: Minimum inhibitory concentration (MIC) required to reduce virus-induced cytopathogenicity by 50% against Sindbis virus in African green monkey kidney (Vero B)cells; format: functional; settings: Chlorocebus sabaeus
WI-38 [10] = test: Minimum inhibitory concentration (MIC) required to reduce virus-induced cytopathogenicity by 50% against Rhinovirus-1A in human diploid (WI-38)cells; format: functional
Oryctolagus cuniculus [11] = species: Oryctolagus cuniculus; test: Minimum inhibitory concentration (MIC) required to reduce virus-induced cytopathogenicity by 50% against G strain of Herpes simplex virus-2 in primary rabbit kidney cells; format: functional
HeLa [12] = test: Minimum inhibitory concentration (MIC) required to reduce virus-induced cytopathogenicity by 50% against Coxsackie virus B4 in HeLa cells; format: functional; settings: Homo sapiens
[13] = Minimum cytotoxic concentration (MCC) required to cause a microscopically detectable alteration of host cell morphology, when incubated with PRK cells; format: functional; settings: Oryctolagus cuniculus
Oryctolagus cuniculus [14] = species: Oryctolagus cuniculus; test: Minimum inhibitory concentration (MIC) required to reduce virus-induced cytopathogenicity by 50% against KOS strain of Herpes simplex virus-1 in primary rabbit kidney cells; format: functional
[15] = Inhibitory effect on 196 strain of Herper simplex virus-2 yield, in primary rabbit kidney cell culture 40 ug/mL concentration after 48 hours.; format: functional, Oryctolagus cuniculus
[16] = Inhibitory effect on KOS strain of Herper simplex virus-1 yield, in primary rabbit kidney cell culture at 400 ug/mL concentration after 24 hours; format: functional, Oryctolagus cuniculus
[17] = Inhibitory effect on 196 strain of Herper simplex virus-2 yield, in primary rabbit kidney cell culture 100 ug/mL concentration after 48 hours.; format: functional, Oryctolagus cuniculus
Mus musculus [18] = species: Mus musculus; test: Number of mice normal, without lesion after HSV-1 infection observed from day 12 to day 20; format: functional
[19] = Inhibitory effect on KOS strain of Herper simplex virus-1 yield, in primary rabbit kidney cell culture 100 ug/mL concentration after 48 hours.; format: functional, Oryctolagus cuniculus
Mus musculus [20] = species: Mus musculus; test: Number of mice dead after HSV-2 infection observed from day 12 to day 20; format: functional
[21] = Inhibitory effect on 196 strain of Herper simplex virus-2 yield, in primary rabbit kidney cell culture 400 ug/mL concentration after 24 hours.; format: functional, Oryctolagus cuniculus
[22] = Inhibitory effect on KOS strain of Herper simplex virus-1 yield, in primary rabbit kidney cell culture 400 ug/mL concentration after 48 hours.; format: functional, Oryctolagus cuniculus
WI-38 (Homo sapiens) = test: Minimum inhibitory concentration (MIC) required to reduce virus-induced cytopathogenicity by 50% against Rhinovirus-1A in human diploid (WI-38)cells
[23] = Inhibitory effect on KOS strain of Herper simplex virus-1 yield, in primary rabbit kidney cell culture at 40 ug/mL concentration after 24 hours; format: functional, Oryctolagus cuniculus
Mus musculus [24] = species: Mus musculus; test: Survival rate at 20th day expressed as number of mice survived infected with HSV-1; out of 10; format: functional
[25] = Inhibitory effect on 196 strain of Herper simplex virus-2 yield, in primary rabbit kidney cell culture 400 ug/mL concentration after 48 hours.; format: functional, Oryctolagus cuniculus
Oryctolagus cuniculus [26] = species: Oryctolagus cuniculus; test: Minimum inhibitory concentration (MIC) required to reduce virus-induced cytopathogenicity by 50% against Vaccinia virus in primary rabbit kidney cells; format: functional
[27] = Inhibitory effect on KOS strain of Herper simplex virus-1 yield, in primary rabbit kidney cell culture 40 ug/mL concentration after 48 hours.; format: functional, Oryctolagus cuniculus
[28] = Inhibitory effect on 196 strain of Herper simplex virus-2 yield, in primary rabbit kidney cell culture 100 ug/mL concentration after 24 hours.; format: functional, Oryctolagus cuniculus
Mus musculus [29] = species: Mus musculus; test: Number of mice normal, without lesion after HSV-1 infection observed from day 0 to day 3; format: functional
Mus musculus [30] = species: Mus musculus; test: Number of mice normal, without lesion after HSV-2 infection observed from day 0 to day 3; format: functional
Mus musculus [31] = species: Mus musculus; test: Survival rate at 20th day expressed as number of mice survived infected with HSV-2; out of 10; format: functional
[32] = Inhibitory effect on KOS strain of Herper simplex virus-1 yield, in primary rabbit kidney cell culture at 100 ug/mL concentration after 24 hours; format: functional, Oryctolagus cuniculus
[33] = Inhibitory effect on 196 strain of Herper simplex virus-2 yield, in primary rabbit kidney cell culture 40 ug/mL concentration after 24 hours.; format: functional, Oryctolagus cuniculus
Mus musculus [34] = species: Mus musculus; test: Number of mice dead after HSV-1 infection observed from day 12 to day 20; format: functional
Mus musculus [35] = species: Mus musculus; test: Number of mice normal, without lesion after HSV-2 infection observed from day 12 to day 20; format: functional
HeLa [36] = test: Minimum inhibitory concentration (MIC) required to reduce virus-induced cytopathogenicity by 50% against Vesicular stomatitis virus in HeLa cells; format: functional; settings: Homo sapiens
Oryctolagus cuniculus [37] = species: Oryctolagus cuniculus; test: Minimum inhibitory concentration (MIC) required to reduce virus-induced cytopathogenicity by 50% against Vesicular stomatitis virus in primary rabbit kidney cells; format: functional
HeLa [38] = test: Minimum inhibitory concentration (MIC) required to reduce virus-induced cytopathogenicity by 50% against Polio virus-1 in HeLa cells; format: functional; settings: Homo sapiens
[39] = Chlorocebus sabaeus, read-out: MIC
[40] = Oryctolagus cuniculus, read-out: MIC

Nc1nc2c(ncn2[C@H]2O[C@H](CO)[C@H](O)[C@@H]2O)c(=O)[nH]1
MIC (Vero [1]; [39]): > 400 µg/mL | MIC (Vero [2]; [39]): > 400 µg/mL | MIC (Vero [3]): > 400 µg/mL | MCC (WI-38 [4]): > 400 µg/mL | MCC (HeLa [5]): > 400 µg/mL | MIC (WI-38 [6]; Homo sapiens, read-out: MIC): 200 µg/mL (≈ 706 µM) | MIC (Vero [7]; [39]): > 400 µg/mL | MCC (Vero [8]): > 400 µg/mL | MIC (Vero [9]): > 400 µg/mL | MIC (WI-38 [10]): > 400 µg/mL | MIC (Oryctolagus cuniculus [11]; [40]): > 400 µg/mL | MIC (HeLa [12]): > 400 µg/mL | MCC [13]: > 400 µg/mL | MIC (Oryctolagus cuniculus [14]): > 400 µg/mL

O=c1ccn([C@H]2O[C@H](CO)[C@H](O)[C@@H]2O)c(=O)[nH]1
MIC (Vero [1]; [39]): > 400 µg/mL | MIC (Vero [2]; [39]): > 400 µg/mL | MIC (Vero [3]): > 400 µg/mL | MCC (WI-38 [4]): > 400 µg/mL | MCC (HeLa [5]): > 400 µg/mL | MIC (WI-38 [6]; Homo sapiens, read-out: MIC): > 400 µg/mL | MIC (Vero [7]; [39]): > 200 µg/mL | MCC (Vero [8]): > 400 µg/mL | MIC (Vero [9]): > 400 µg/mL | MIC (WI-38 [10]): > 400 µg/mL | MIC (Oryctolagus cuniculus [11]; [40]): > 400 µg/mL | MIC (HeLa [12]): > 400 µg/mL | MCC [13]: > 400 µg/mL | MIC (Oryctolagus cuniculus [14]): > 400 µg/mL

Nc1ncnc2c1ncn2[C@@H]1O[C@H](CO)[C@H](O)[C@@H]1O (stereo in doubt; 8)
Virus yield [15]: 5.5 log pfu ml-1 | Virus yield [16]: 6.2 log pfu ml-1 | MIC (Vero [1]; [39]): 70 µg/mL (≈ 262 µM) | Virus yield [17]: 5.3 log pfu ml-1 | No. of mice (Mus musculus [18]): 4 | MIC (Vero [2]): 70 µg/mL (≈ 262 µM) | Virus yield [19]: 6.7 log pfu ml-1 | No. of mice (Mus musculus [20]): 7 | MIC (Vero [3]): > 400 µg/mL | Virus yield [21]: 3.8 log pfu ml-1 | MCC (WI-38 [4]): > 400 µg/mL | Virus yield [22]: 6.6 log pfu ml-1 | MCC (HeLa [5]): > 400 µg/mL | MIC (WI-38 (Homo sapiens)): > 200 µg/mL | Virus yield [23]: 6.8 log pfu ml-1 | Survival rate (Mus musculus [24]): 4 | Virus yield [25]: 5.1 log pfu ml-1 | MIC (WI-38 [6]; Homo sapiens, read-out: MIC): > 200 µg/mL | MIC (Vero [7]; [39]): > 400 µg/mL | MIC (Oryctolagus cuniculus [26]): 70 µg/mL (≈ 262 µM) | Virus yield [27]: 7 log pfu ml-1 | MCC (Vero [8]): > 400 µg/mL | MIC (Vero [9]): > 400 µg/mL | Virus yield [28]: 5.1 log pfu ml-1 | No. of mice (Mus musculus [29]): 10 | MIC (Oryctolagus cuniculus [11]): 100 µg/mL (≈ 374 µM) | No. of mice (Mus musculus [30]): 10 | MIC (HeLa [12]): > 400 µg/mL | MCC [13]: > 400 µg/mL | Survival rate (Mus musculus [31]): 3 | MIC (Oryctolagus cuniculus [14]): > 400 µg/mL | Virus yield [32]: 6.8 log pfu ml-1 | Virus yield [33]: 5.4 log pfu ml-1 | No. of mice (Mus musculus [34]): 6 | No. of mice (Mus musculus [35]): 3

Nc1ncnc2c1ncn2[C@@H]1O[C@H](CO)[C@H](O)[C@@H]1O (stereo in doubt; 22d)
MIC (Vero [1]): 100 µg/mL (≈ 374 µM) | MIC (Vero [2]): >200 µg/mL | MIC (WI-38 [6]): >400 µg/mL | MIC (Vero [7]): >200 µg/mL | MIC (Oryctolagus cuniculus [26]): 200 µg/mL (≈ 748 µM) | MIC (WI-38 [10]): > 400 µg/mL | MIC (Oryctolagus cuniculus [11]): >400 µg/mL

NC(=O)c1ncn([C@@H]2O[C@H](CO)[C@@H](O)[C@H]2O)n1 [RIBAVIRIN]
MIC (Vero [1]; [39]): 10 µg/mL (≈ 40.9 µM) | MIC (HeLa [36]): 20 µg/mL (≈ 81.9 µM) | MIC (Vero [2]; [39]): 70 µg/mL (≈ 287 µM) | MIC (Vero [3]): > 400 µg/mL | MCC (WI-38 [4]): > 400 µg/mL | MCC (HeLa [5]): > 200 µg/mL | MIC (Oryctolagus cuniculus [37]): 150 µg/mL (≈ 614 µM) | MIC (WI-38 [6]; Homo sapiens, read-out: MIC): > 400 µg/mL | MIC (Vero [7]; [39]): 70 µg/mL (≈ 287 µM) | MIC (Oryctolagus cuniculus [26]; [40]): 20 µg/mL (≈ 81.9 µM) | MIC (HeLa [38]): 70 µg/mL (≈ 287 µM) | MCC (Vero [8]): > 400 µg/mL | MIC (Vero [9]): 70 µg/mL (≈ 287 µM) | MIC (WI-38 [10]): 150 µg/mL (≈ 614 µM) | MIC (Oryctolagus cuniculus [11]; [40]): > 400 µg/mL | MIC (HeLa [12]): 70 µg/mL (≈ 287 µM) | MCC [13]: > 400 µg/mL | MIC (Oryctolagus cuniculus [14]): > 400 µg/mL

Nc1ncnc2c1ccn2[C@@H]1O[C@H](CO)[C@@H](O)[C@H]1O [TUBERCIDIN]
MIC (Vero [1]; [39]): 0.2 µg/mL (≈ 0.751 µM) | MIC (HeLa [36]): 0.07 µg/mL (≈ 0.263 µM) | MIC (Vero [2]; [39]): > 0.1 µg/mL | MIC (Vero [3]): > 0.4 µg/mL | MCC (WI-38 [4]): > 4 µg/mL | MCC (HeLa [5]): > 1 µg/mL | MIC (Oryctolagus cuniculus [37]): 0.07 µg/mL (≈ 0.263 µM) | MIC (WI-38 [6]; Homo sapiens, read-out: MIC): > 4 µg/mL | MIC (Vero [7]; [39]): > 0.1 µg/mL | MIC (Oryctolagus cuniculus [26]; [40]): 0.2 µg/mL (≈ 0.751 µM) | MIC (HeLa [38]): 0.07 µg/mL (≈ 0.263 µM) | MCC (Vero [8]): > 0.4 µg/mL | MIC (Vero [9]): 0.2 µg/mL (≈ 0.751 µM) | MIC (WI-38 [10]): 0.02 µg/mL (≈ 0.0751 µM) | MIC (Oryctolagus cuniculus [11]; [40]): > 0.4 µg/mL | MIC (HeLa [12]): 0.2 µg/mL (≈ 0.751 µM) | MCC [13]: 1 µg/mL | MIC (Oryctolagus cuniculus [14]): > 0.4 µg/mL
